Results from ChEMBL document CHEMBL3817844 (Medchemcomm, 2016).

Legend:
[1] = system: Schistosoma mansoni; assay: Antischistosomal activity against adult male Schistosoma mansoni BH derived from infected Swiss mouse assessed as reduction in motility measured after 48 hrs by automated image-based analysis; assay type: functional, organism-based
[2] = system: Schistosoma mansoni; assay: Antischistosomal activity against adult female Schistosoma mansoni BH derived from infected Swiss mouse assessed as reduction in motility measured after 48 hrs by automated image-based analysis; assay type: functional, organism-based
[3] = system: Schistosoma mansoni; assay: Antischistosomal activity against adult female Schistosoma mansoni BH derived from infected Swiss mouse assessed as reduction in motility measured after 72 hrs by automated image-based analysis; assay type: functional, organism-based
[4] = system: Schistosoma mansoni; assay: Antischistosomal activity against adult female Schistosoma mansoni BH derived from infected Swiss mouse assessed as reduction in motility measured immediately after treatment by automated image-based analysis; assay type: functional, organism-based
[5] = Inhibition of Schistosoma mansoni SERT
[6] = system: Schistosoma mansoni; assay: Antischistosomal activity against adult female Schistosoma mansoni BH derived from infected Swiss mouse assessed as reduction in motility measured after 24 hrs by automated image-based analysis; assay type: functional, organism-based
[7] = system: Schistosoma mansoni; assay: Antischistosomal activity against newly transformed Schistosoma mansoni BH assessed as decrease in viability after 72 hrs by resazurin-based spectrophotometric assay; assay type: functional, organism-based
[8] = system: Schistosoma mansoni; assay: Antischistosomal activity against adult male Schistosoma mansoni BH derived from infected Swiss mouse assessed as reduction in motility measured after 24 hrs by automated image-based analysis; assay type: functional, organism-based
[9] = system: Schistosoma mansoni; assay: Antischistosomal activity against adult male Schistosoma mansoni BH derived from infected Swiss mouse assessed as reduction in motility measured after 72 hrs by automated image-based analysis; assay type: functional, organism-based
[10] = system: Schistosoma mansoni; assay: Antischistosomal activity against adult male Schistosoma mansoni BH derived from infected Swiss mouse assessed as reduction in motility measured immediately after treatment by automated image-based analysis; assay type: functional, organism-based

Compound	EC50 [1]	EC50 [2]	EC50 [3]	EC50 [4]	IC50 [5]	EC50 [6]	IC50 [7]	EC50 [8]	EC50 [9]	EC50 [10]
Fc1ccc([C@@H]2CCNC[C@H]2COc2ccc3c(c2)OCO3)cc1 [PAROXETINE]	3800 nM	11500 nM	11900 nM	17400 nM	90 nM	9900 nM	2500 nM	5100 nM	2700 nM	23500 nM
O=C(C1CCCCC1)N1CC(=O)N2CCc3ccccc3C2C1 (stereo unspecified) [PRAZIQUANTEL]	130 nM		660 nM	130 nM		300 nM		120 nM		110 nM
